In PubChem BioAssay AID256 (DTP/NCI, 2004):
Toxic doses and inconclusive results are not listed. How the source made its calls: active means survival T/C of 150% or more; inactive means T/C below 125% in these data.

System: CD2F1 mice, L1210 leukemia ip, survival T/C
Assay: NCI In Vivo Anticancer Drug Screen. Data for tumor model L1210 Leukemia (intraperitoneal) in CD2F1 (CDF1) mice
Settings: higher = longer survival
Summary of the method: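 Implant tumor; dose compound or vehicle; measure endpoint in both groups; report treated divided by control.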

[1] = endpoint: mean survival time, dose: 12.5 mg/kg/injection, schedule: Q01DX001 (ip), vehicle: saline with Tween-80
[2] = endpoint: mean survival time, dose: 100.0 mg/kg/injection, schedule: Q01DX001 (ip), vehicle: saline with Tween-80
[3] = endpoint: mean survival time, dose: 200.0 mg/kg/injection, schedule: Q01DX001 (ip), vehicle: saline with Tween-80
[4] = endpoint: mean survival time, dose: 400.0 mg/kg/injection, schedule: Q01DX001 (ip), vehicle: saline with Tween-80
[5] = endpoint: mean survival time, dose: 100.0 mg/kg/injection, schedule: Q04DX002 (ip), vehicle: saline with Tween-80
[6] = endpoint: mean survival time, dose: 100.0 mg/kg/injection, schedule: Q01DX009 (ip), vehicle: saline with Tween-80
[7] = endpoint: mean survival time, dose: 200.0 mg/kg/injection, schedule: Q01DX009 (ip), vehicle: saline with Tween-80
[8] = endpoint: mean survival time, dose: 400.0 mg/kg/injection, schedule: Q01DX009 (ip), vehicle: saline with Tween-80
[9] = endpoint: mean survival time, dose: 5.0 mg/kg/injection, schedule: Q01DX009 (ip), vehicle: saline with Tween-80
[10] = endpoint: mean survival time, dose: 100.0 mg/kg/injection, schedule: Q01DX001 (ip), vehicle: saline
[11] = endpoint: mean survival time, dose: 200.0 mg/kg/injection, schedule: Q01DX001 (ip), vehicle: saline
[12] = endpoint: mean survival time, dose: 400.0 mg/kg/injection, schedule: Q01DX001 (ip), vehicle: saline
[13] = endpoint: mean survival time, dose: 100.0 mg/kg/injection, schedule: Q04DX003 (ip), vehicle: saline with Tween-80
[14] = endpoint: mean survival time, dose: 200.0 mg/kg/injection, schedule: Q04DX003 (ip), vehicle: saline with Tween-80
[15] = endpoint: mean survival time, dose: 400.0 mg/kg/injection, schedule: Q04DX003 (ip), vehicle: saline with Tween-80
[16] = endpoint: mean survival time, dose: 12.5 mg/kg/injection, schedule: Q01DX009 (ip), vehicle: saline
[17] = endpoint: mean survival time, dose: 25.0 mg/kg/injection, schedule: Q01DX009 (ip), vehicle: saline
[18] = endpoint: mean survival time, dose: 50.0 mg/kg/injection, schedule: Q01DX009 (ip), vehicle: saline

Measured: T/C

O=C/C=C/C=O
inactive: endpoint: mean survival time, dose: 3.13 mg/kg/injection, schedule: Q01DX001 (ip), vehicle: suspension in saline 98 % of control | endpoint: mean survival time, dose: 6.25 mg/kg/injection, schedule: Q01DX001 (ip), vehicle: saline with Tween-80 106 % of control | endpoint: mean survival time, dose: 6.25 mg/kg/injection, schedule: Q01DX001 (ip), vehicle: suspension in saline 104 % of control | [1] 122 % of control | endpoint: mean survival time, dose: 12.5 mg/kg/injection, schedule: Q01DX001 (ip), vehicle: suspension in saline 101 % of control | endpoint: mean survival time, dose: 25.0 mg/kg/injection, schedule: Q01DX001 (ip), vehicle: suspension in saline 101 % of control

COc1ccc2ccccc2c1
inactive: [2] 101 % of control | endpoint: mean survival time, dose: 100.0 mg/kg/injection, schedule: Q04DX003 (ip), vehicle: other 100 % of control | [3] 100 % of control | endpoint: mean survival time, dose: 200.0 mg/kg/injection, schedule: Q04DX003 (ip), vehicle: other 104 % of control | [4] 111 % of control

N[C@@H]1CCCC[C@H]1N.O=C([O-])C(=O)[O-].[Pt+4]
inactive: endpoint: mean survival time, dose: 0.78 mg/kg/injection, schedule: Q04DX003 (ip), vehicle: saline 120 % of control

COC(=O)CC1(C(=O)OC)NC(=O)c2cc(OC)c(Cl)cc2N1 (centres undefined)
inactive: [2] 88 % of control | [5] 96 % of control | [3] 94 % of control | endpoint: mean survival time, dose: 200.0 mg/kg/injection, schedule: Q04DX002 (ip), vehicle: saline with Tween-80 96 % of control | [4] 95 % of control | endpoint: mean survival time, dose: 400.0 mg/kg/injection, schedule: Q04DX002 (ip), vehicle: saline with Tween-80 86 % of control

O=C1C(Cl)=C(SCc2ccccc2)C(=O)c2ccccc21
inactive: endpoint: mean survival time, dose: 25.0 mg/kg/injection, schedule: Q04DX003 (ip), vehicle: saline with Tween-80 91 % of control | endpoint: mean survival time, dose: 50.0 mg/kg/injection, schedule: Q04DX003 (ip), vehicle: saline with Tween-80 91 % of control

c1ccc2c(c1)Sc1ccccc1N2CCCNC1=NCCO1
inactive: endpoint: mean survival time, dose: 25.0 mg/kg/injection, schedule: Q04DX002 (ip), vehicle: saline with Tween-80 97 % of control | endpoint: mean survival time, dose: 50.0 mg/kg/injection, schedule: Q04DX002 (ip), vehicle: saline with Tween-80 94 % of control | [2] 89 % of control | [5] 94 % of control

O=C(Nc1ccccc1)O/N=C(/c1ccccc1)c1cccnc1
inactive: endpoint: mean survival time, dose: 100.0 mg/kg/injection, schedule: Q01DX001 (ip), vehicle: other 104 % of control | endpoint: mean survival time, dose: 200.0 mg/kg/injection, schedule: Q01DX001 (ip), vehicle: other 104 % of control | endpoint: mean survival time, dose: 400.0 mg/kg/injection, schedule: Q01DX001 (ip), vehicle: other 98 % of control

COC(=O)C(O)c1ccc2c(c1)OCO2 (centres undefined)
inactive: [6] 97 % of control | [7] 90 % of control | [8] 90 % of control

Cc1nccc2c1[nH]c1cc(N)ccc12.[Cl][Sn][Cl]
inactive: [9] 115 % of control | endpoint: mean survival time, dose: 10.0 mg/kg/injection, schedule: Q01DX009 (ip), vehicle: saline with Tween-80 103 % of control | endpoint: mean survival time, dose: 20.0 mg/kg/injection, schedule: Q01DX009 (ip), vehicle: saline with Tween-80 102 % of control

O=c1c2cc[nH]c2ncn1C1OC(CO)C(O)C1O (centres undefined)
inactive: endpoint: mean survival time, dose: 12.5 mg/kg/injection, schedule: Q01DX005 (ip), vehicle: saline 96 % of control | endpoint: mean survival time, dose: 25.0 mg/kg/injection, schedule: Q01DX005 (ip), vehicle: saline 107 % of control

COc1ccc(CCNC(=O)Cc2cc3c(cc2[N+](=O)[O-])OCO3)cc1OC
inactive: [10] 95 % of control | [11] 94 % of control | [12] 95 % of control

CCOC(=O)c1cnc(SCc2ccccc2Cl)nc1N1CC1
inactive: endpoint: mean survival time, dose: 28.05 mg/kg/injection, schedule: Q01DX009 (ip), vehicle: saline with Tween-80 115 % of control

Cc1[nH]c(=S)[nH]c(=O)c1CCO
inactive: [2] 105 % of control | [6] 101 % of control | [3] 95 % of control | [7] 103 % of control | [4] 100 % of control | [8] 101 % of control

CN1CCOc2ccccc2OCCOCCOc2ccccc2OCC1
inactive: endpoint: mean survival time, dose: 100.0 mg/kg/injection, schedule: Q01DX009 (ip), vehicle: Klucel (hydroxypropylcellulose) (HPC) 105 % of control | endpoint: mean survival time, dose: 200.0 mg/kg/injection, schedule: Q01DX009 (ip), vehicle: Klucel (hydroxypropylcellulose) (HPC) 106 % of control

O.O=C(O)C(Cc1ccc(O)cc1)N=Cc1c(O)cncc1COP(=O)(O)O.[Cu] (centres undefined)
inactive: [1] 95 % of control | endpoint: mean survival time, dose: 25.0 mg/kg/injection, schedule: Q01DX001 (ip), vehicle: saline with Tween-80 103 % of control | endpoint: mean survival time, dose: 50.0 mg/kg/injection, schedule: Q01DX001 (ip), vehicle: saline with Tween-80 98 % of control

O=C(O)CCC(=O)c1cccc(O)c1
inactive: [10] 103 % of control | [11] 104 % of control | [12] 103 % of control

C=C1CN(C(=O)NCCCl)C1
inactive: [2] 100 % of control | [3] 100 % of control | [4] 97 % of control

COc1ccc(OC)c(NC(=O)Nc2ccc(NC(C)=O)cc2)c1
inactive: [6] 91 % of control | [7] 95 % of control | [8] 91 % of control

CCC1(C(=O)OC)CCC2C3CCC4CCCCC4(C)C3CCC21C (centres undefined)
inactive: endpoint: mean survival time, dose: 75.0 mg/kg/injection, schedule: Q04DX003 (sc), vehicle: steriod suspending solution 103 % of control | endpoint: mean survival time, dose: 150.0 mg/kg/injection, schedule: Q04DX003 (sc), vehicle: steriod suspending solution 101 % of control | endpoint: mean survival time, dose: 300.0 mg/kg/injection, schedule: Q04DX003 (sc), vehicle: steriod suspending solution 101 % of control

CC(C)C1=CC2=CCC3C(C)(CN)CCCC3(C)C2CC1CCN (centres undefined)
inactive: endpoint: mean survival time, dose: 1.25 mg/kg/injection, schedule: Q01DX009 (ip), vehicle: saline with Tween-80 101 % of control | endpoint: mean survival time, dose: 2.5 mg/kg/injection, schedule: Q01DX009 (ip), vehicle: saline with Tween-80 97 % of control | [9] 94 % of control

O=C1CCNC(=O)N1
inactive: [6] 93 % of control | [13] 106 % of control | [7] 98 % of control | [14] 101 % of control | [8] 93 % of control | [15] 95 % of control

CCOC(=O)C1=C(C)NC(=O)NN1C(=O)OCC
inactive: [16] 94 % of control | [17] 87 % of control | [18] 94 % of control

O=C(Cc1ccccc1)c1ccc(O)cc1
inactive: [13] 100 % of control | [14] 103 % of control | [15] 111 % of control

CONc1ccn(C2OC(CO)C(O)C2O)c(=O)n1 (centres undefined)
inactive: [16] 108 % of control | [17] 108 % of control | [18] 117 % of control | endpoint: mean survival time, dose: 100.0 mg/kg/injection, schedule: Q01DX009 (ip), vehicle: saline 121 % of control | endpoint: mean survival time, dose: 200.0 mg/kg/injection, schedule: Q01DX009 (ip), vehicle: saline 120 % of control | endpoint: mean survival time, dose: 400.0 mg/kg/injection, schedule: Q01DX009 (ip), vehicle: saline 97 % of control | endpoint: median survival time, dose: 12.5 mg/kg/injection, schedule: Q01DX009 (ip), vehicle: saline 101 % of control | endpoint: median survival time, dose: 25.0 mg/kg/injection, schedule: Q01DX009 (ip), vehicle: saline 108 % of control | endpoint: median survival time, dose: 50.0 mg/kg/injection, schedule: Q01DX009 (ip), vehicle: saline 108 % of control | endpoint: median survival time, dose: 100.0 mg/kg/injection, schedule: Q01DX009 (ip), vehicle: saline 111 % of control | endpoint: median survival time, dose: 200.0 mg/kg/injection, schedule: Q01DX009 (ip), vehicle: saline 112 % of control | endpoint: median survival time, dose: 400.0 mg/kg/injection, schedule: Q01DX009 (ip), vehicle: saline 120 % of control

C=CCNC(=S)NCC
inactive: [6] 98 % of control | endpoint: mean survival time, dose: 100.0 mg/kg/injection, schedule: Q04DX003 (ip), vehicle: saline sonified 101 % of control | [7] 101 % of control | endpoint: mean survival time, dose: 200.0 mg/kg/injection, schedule: Q04DX003 (ip), vehicle: saline sonified 97 % of control | [8] 102 % of control | endpoint: mean survival time, dose: 400.0 mg/kg/injection, schedule: Q04DX003 (ip), vehicle: saline sonified 101 % of control

CC(=O)C(C)(O)C(C)(C)C (centres undefined)
inactive: endpoint: mean survival time, dose: 100.0 mg/kg/injection, schedule: Q04DX003 (ip), vehicle: saline 95 % of control | endpoint: mean survival time, dose: 200.0 mg/kg/injection, schedule: Q04DX003 (ip), vehicle: saline 93 % of control | endpoint: mean survival time, dose: 400.0 mg/kg/injection, schedule: Q04DX003 (ip), vehicle: saline 98 % of control

[Cl-].[NH-]CCN(CC[NH-])CCN.[O-][Cl+3]([O-])([O-])O.[O-][Cl+3]([O-])([O-])O.[Pt+2]
inactive: endpoint: mean survival time, dose: 12.5 mg/kg/injection, schedule: Q04DX003 (ip), vehicle: saline with Tween-80 97 % of control
